Measured values taken from ChEMBL document CHEMBL5143506, “Design, synthesis, and mechanism study of dimerized phenylalanine derivatives as novel HIV-1 capsid inhibitors” (Eur J Med Chem, 2021).
pEC50: −log10 of the molar value.

How the values were obtained:
[1] = tested on: Human immunodeficiency virus 1; experiment: Antiviral activity against wild type HIV-1 IIIB infected in human MT4 cells assessed as protection against virus-induced cytopathic effect measured after 5 days by MTT assay; format: functional, organism-based; conditions: Human immunodeficiency virus 1, IIIB, MT4, 120 h
in vitro [2] = conditions: human, MT4 cells
Description: Selectivity index, ratio of CC50 for cytotoxicity against human MT4 cells to EC50 for antiviral activity against HIV-1 IIIB infected in human MT4 cells

MT4 = experiment: (§1) Cytotoxicity against human MT4 cells assessed as reduction in cell viability incubated for 5 days by MTT assay; conditions: mt4, 120 h
[3] = as §1; conditions: MT4 cells
in vitro [4] = conditions: human, liver microsomes
[5] = tested on: Human immunodeficiency virus 1; experiment: Antiviral activity against HIV1 NL4-3 Env-deficient pseudotype virus infected in human U87.CD4.CCR5.CXCR4 cells assessed by reduction in viral infection in early stage at 5 uM measured after 48 hrs by luciferase activity based single-round infection assay; format: functional; design: scale not given: the % may be the effect or the level left
[6] = human, microsomes, 3 h, 100 µM
[7] = tested on: Human immunodeficiency virus 1; experiment: Antiviral activity against HIV1 NL4-3 Env-deficient pseudotype virus infected in human U87.CD4.CCR5.CXCR4 cells assessed by reduction in viral infection in late stage at 5 uM measured after 48 hrs by luciferase activity based single-round infection assay; format: functional; design: scale not given: the % may be the effect or the level left
in vitro [8] = conditions: human, liver microsomes; remark: listed apart in the source
Description: Metabolic stability in human liver microsome assessed as parent compound remaining at 100 uM measured after 60 mins in presence of NADPH by LC-MS/MS analysis

[9] = tested on: Human immunodeficiency virus 1; experiment: Antiviral activity against HIV1 NL4-3 Env-deficient pseudotype virus infected in human U87.CD4.CCR5.CXCR4 cells assessed by reduction in viral infection in early stage at 1 uM measured after 48 hrs by luciferase activity based single-round infection assay; format: functional; design: scale not given: the % may be the effect or the level left
[10] = tested on: Human immunodeficiency virus 1; experiment: Antiviral activity against HIV1 NL4-3 Env-deficient pseudotype virus infected in human U87.CD4.CCR5.CXCR4 cells assessed by reduction in viral infection in late stage at 1 uM measured after 48 hrs by luciferase activity based single-round infection assay; format: functional; design: scale not given: the % may be the effect or the level left
in vitro [11] = conditions: human, liver microsomes; remark: listed apart in the source
Description: Metabolic stability in human liver microsome assessed as parent compound remaining at 100 uM measured after 60 mins by LC-MS/MS analysis

[12] = human, microsomes, 3 h, 100 µM; remark: listed apart in the source
in vitro [13] = conditions: human, MT4 cells; remark: listed apart in the source
Description: Selectivity index, ratio of CC50 for cytotoxicity against human MT4 cells to EC50 for antiviral activity against HIV-1 ROD infected in human MT4 cells

| SMILES | pEC50 [1] | selectivity ratio (in vitro [2]) | CC50 (MT4) [µM] | other results |
| --- | --- | --- | --- | --- |
| COc1ccc(N(C)C(=O)[C@H](Cc2cc(F)cc(F)c2)NC(=O)CN2CCN(CC(=O)N[C@@H](Cc3ccccc3)C(=O)N(C)c3ccccc3)C(=O)C2)cc1 | 5.38 | 3.05 | 12.8 | – |
| COc1ccc(N(C)C(=O)[C@H](Cc2ccccc2)NC(=O)CN2CCN(CC(=O)N[C@@H](Cc3cc(F)cc(F)c3)C(=O)N(C)c3ccc(OC)cc3)C(=O)C2)cc1 | 5.60 | 6.14 | 15.5 | – |
| COc1ccc(N(C)C(=O)[C@H](Cc2ccccc2)NC(=O)CN2CC(=O)N(CC(=O)N[C@@H](Cc3ccccc3)C(=O)N(C)c3ccc(OC)cc3)CC2=O)cc1 | 5.44 | 6.82 | – | CC50 at 120 h [3]: 24.5 µM |
| COc1ccc(N(C)C(=O)[C@H](Cc2ccccc2)NC(=O)CN2CCN(CC(=O)N[C@@H](Cc3ccccc3)C(=O)N(C)c3ccccc3)C(=O)C2)cc1 | ≤ 5.47 | – | 21.7 | – |
| Cc1[nH]c2ccccc2c1CC(=O)N[C@@H](Cc1ccccc1)C(=O)N(C)c1ccccc1 | – | – | – | half-life at 3 h, 100 µM (in vitro [4]): 30 s |
| COc1ccc(N(C)C(=O)[C@H](Cc2cc(F)cc(F)c2)NC(=O)CN2CCN(CC(=O)N[C@@H](Cc3ccccc3)C(=O)N(C)c3ccc(OC)cc3)C(=O)C2)cc1 | 5.83 | 9.11 | 13.5 | – |
| COc1ccc(N(C)C(=O)[C@H](Cc2cc(F)cc(F)c2)NC(=O)CN2CCN(CC(=O)N[C@@H](Cc3cc(F)cc(F)c3)C(=O)N(C)c3ccc(OC)cc3)C(=O)C2)cc1 | – | – | – | Activity [5]: 86.6%; t1/2 [6]: 48 s; Activity [7]: 0.6% |
| COc1ccc(N(C)C(=O)[C@H](Cc2ccccc2)NC(=O)CN2CCN(S(=O)(=O)c3ccc(N)cc3)CC2=O)cc1 | 6.80 | – | 119 | remaining at 1 h, 100 µM (in vitro [8]): 0.1%; Activity [9]: 7.1%; Activity [10]: 55%; remaining at 1 h, 100 µM (in vitro [11]): 106%; CLH [12]: 395.6 µL/min/mg |
| CN(C(=O)[C@H](Cc1ccccc1)NC(=O)CN1CCN(CC(=O)N[C@@H](Cc2ccccc2)C(=O)N(C)c2ccccc2)C(=O)C1)c1ccccc1 | < 4.49 | – | 32.6 | – |
| COc1ccc(N(C)C(=O)[C@H](Cc2cc(F)cc(F)c2)NC(=O)CN2CCNCC2=O)cc1 | 4.51 | – | > 272 | – |
| CN(C(=O)[C@H](Cc1ccccc1)NC(=O)CN1CCNCC1=O)c1ccccc1 | 3.61 | – | – | CC50 at 120 h [3]: > 317 µM |
| CN(C(=O)[C@H](Cc1ccccc1)NC(=O)CN1CC(=O)N(CC(=O)N[C@@H](Cc2ccccc2)C(=O)N(C)c2ccccc2)CC1=O)c1ccccc1 | 5.37 | 16.9 | 71.8 | selectivity ratio (in vitro [13]): 2.41 |
| COc1ccc(N(C)C(=O)[C@H](Cc2cc(F)cc(F)c2)NC(=O)CN2CCN(CC(=O)N[C@@H](Cc3ccccc3)C(=O)N(C)c3ccccc3)CC2=O)cc1 | 5.55 | 6.15 | 17.5 | – |
| COc1ccc(N(C)C(=O)[C@H](Cc2ccccc2)NC(=O)CN2CCN(CC(=O)N[C@@H](Cc3ccccc3)C(=O)N(C)c3ccccc3)CC2=O)cc1 | < 4.49 | – | 32.4 | – |
| COc1ccc(N(C)C(=O)[C@H](Cc2ccccc2)NC(=O)CN2CCNCC2=O)cc1 | 4.05 | – | > 294 | – |
| COc1ccc(N(C)C(=O)[C@H](Cc2cc(F)cc(F)c2)NC(=O)CN2CC(=O)N(CC(=O)N[C@@H](Cc3cc(F)cc(F)c3)C(=O)N(C)c3ccc(OC)cc3)CC2=O)cc1 | 6.16 | – | 13.3 | remaining at 1 h, 100 µM (in vitro [8]): 0%; t1/2 [6]: 96 s; remaining at 1 h, 100 µM (in vitro [11]): 105%; CLH [12]: 843.9 µL/min/mg |
| COc1ccc(N(C)C(=O)[C@H](Cc2ccccc2)NC(=O)CN2CCN(CC(=O)N[C@@H](Cc3ccccc3)C(=O)N(C)c3ccc(OC)cc3)C(=O)C2)cc1 | ≤ 5.44 | – | 15.7 | – |
